Measured values as given in the supplement of paper PMC10307832.

Key:
Experiment in all cases: relative viability (nuclei count vs DMSO), 5 days (fraction); higher = more cells survive
NCI-H647 = test system: NCI-H647
Outline: (§1)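 Lung cancer cell lines were pin-tool dosed in 1536-well plates on the day after seeding, with either a lone drug or a fixed anchor-drug dose plus five library-drug doses (not always all listed) in √10 steps. Nuclei were counted on 4× images after 5 days. Relative viability is the ratio of treated-well to vehicle-well nuclei counts, with each value a median of duplicate plates.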

NCI-H23 = test system: NCI-H23
Outline: as §1

NCI-H650 = test system: NCI-H650
Outline: as §1

NCI-H3122 = test system: NCI-H3122
Outline: as §1

LCLC-103H = test system: LCLC-103H
Outline: as §1

BEN = test system: BEN
Outline: as §1

NCI-H2087 = test system: NCI-H2087
Outline: as §1

NCI-H2023 = test system: NCI-H2023
Outline: as §1

NCI-H1395 = test system: NCI-H1395
Outline: as §1

LOU-NH91 = test system: LOU-NH91
Outline: as §1

HARA = test system: HARA
Outline: as §1

NCI-H441 = test system: NCI-H441
Outline: as §1

NCI-H596 = test system: NCI-H596
Outline: as §1

NCI-H727 = test system: NCI-H727
Outline: as §1

NCI-H2347 = test system: NCI-H2347
Outline: as §1

EMC-BAC-2 = test system: EMC-BAC-2
Outline: as §1

NCI-H1993 = test system: NCI-H1993
Outline: as §1

HCC-44 = test system: HCC-44
Outline: as §1

201T = test system: 201T
Outline: as §1

NCI-H838 = test system: NCI-H838
Outline: as §1

NCI-H2126 = test system: NCI-H2126
Outline: as §1

Molecule `COc1nc(C)cnc1NS(=O)(=O)c1cccnc1-c1ccc(-c2nnco2)cc1` [Zibotentan] + CS(=O)(=O)N1CCN(Cc2cc3nc(-c4cccc5[nH]ncc45)nc(N4CCOCC4)c3s2)CC1 [Pictilisib] (partner 1 µM) has a relative viability (NCI-H647; first compound 0.08 µM) of 0.391, a relative viability (NCI-H647; first compound 0.253 µM) of 0.355 and a relative viability (NCI-H647; first compound 0.8 µM) of 0.41. It also gave a relative viability (NCI-H647; first compound 2.53 µM) of 0.388, a relative viability (NCI-H23; first compound 0.08 µM) of 0.403 and a relative viability (NCI-H23; first compound 0.253 µM) of 0.462. The relative viability (NCI-H23; first compound 0.8 µM) was 0.556, the relative viability (NCI-H23; first compound 2.53 µM) was 0.58 and the relative viability (NCI-H650; first compound 0.08 µM) was 0.921. The relative viability (NCI-H650; first compound 0.253 µM) was 0.773, the relative viability (NCI-H650; first compound 0.8 µM) was 0.743 and the relative viability (NCI-H650; first compound 2.53 µM) was 0.821. For the same molecule, the relative viability (NCI-H3122; first compound 0.08 µM) was 0.568, the relative viability (NCI-H3122; first compound 0.253 µM) was 0.519 and the relative viability (NCI-H3122; first compound 0.8 µM) was 0.576. For the same molecule, the relative viability (NCI-H3122; first compound 2.53 µM) was 0.539, the relative viability (LCLC-103H; first compound 0.08 µM) was 0.681 and the relative viability (LCLC-103H; first compound 0.253 µM) was 0.558. It also gave a relative viability (LCLC-103H; first compound 0.8 µM) of 0.55, a relative viability (LCLC-103H; first compound 2.53 µM) of 0.608 and a relative viability (BEN; first compound 0.08 µM) of 0.652. It also gave a relative viability (BEN; first compound 0.253 µM) of 0.448, a relative viability (BEN; first compound 0.8 µM) of 0.55 and a relative viability (BEN; first compound 2.53 µM) of 0.552. For the same molecule, the relative viability (NCI-H2087; first compound 0.08 µM) was 0.881, the relative viability (NCI-H2087; first compound 0.253 µM) was 0.834 and the relative viability (NCI-H2087; first compound 0.8 µM) was 1.01. For the same molecule, the relative viability (NCI-H2087; first compound 2.53 µM) was 0.954, the relative viability (NCI-H2023; first compound 0.08 µM) was 0.279 and the relative viability (NCI-H2023; first compound 0.253 µM) was 0.127. It also gave a relative viability (NCI-H2023; first compound 0.8 µM) of 0.226, a relative viability (NCI-H2023; first compound 2.53 µM) of 0.26 and a relative viability (NCI-H1395; first compound 0.08 µM) of 0.789. The relative viability (NCI-H1395; first compound 0.253 µM) was 0.546, the relative viability (NCI-H1395; first compound 0.8 µM) was 0.606 and the relative viability (NCI-H1395; first compound 2.53 µM) was 0.541. For the same molecule, the relative viability (LOU-NH91; first compound 0.08 µM) was 0.497, the relative viability (LOU-NH91; first compound 0.253 µM) was 0.468 and the relative viability (LOU-NH91; first compound 0.8 µM) was 0.515. It also gave a relative viability (LOU-NH91; first compound 2.53 µM) of 0.54, a relative viability (HARA; first compound 0.08 µM) of 0.443 and a relative viability (HARA; first compound 0.253 µM) of 0.438. For the same molecule, the relative viability (HARA; first compound 0.8 µM) was 0.351, the relative viability (HARA; first compound 2.53 µM) was 0.57 and the relative viability (NCI-H441; first compound 0.08 µM) was 0.518. For the same molecule, the relative viability (NCI-H441; first compound 0.253 µM) was 0.39, the relative viability (NCI-H441; first compound 0.8 µM) was 0.545 and the relative viability (NCI-H441; first compound 2.53 µM) was 0.632. The relative viability (NCI-H596; first compound 0.08 µM) was 0.446, the relative viability (NCI-H596; first compound 0.253 µM) was 0.417 and the relative viability (NCI-H596; first compound 0.8 µM) was 0.385. It also gave a relative viability (NCI-H596; first compound 2.53 µM) of 0.428, a relative viability (NCI-H727; first compound 0.08 µM) of 0.567 and a relative viability (NCI-H727; first compound 0.253 µM) of 0.38. It also gave a relative viability (NCI-H727; first compound 0.8 µM) of 0.395, a relative viability (NCI-H727; first compound 2.53 µM) of 0.483 and a relative viability (NCI-H2347; first compound 0.08 µM) of 0.601. It also gave a relative viability (NCI-H2347; first compound 0.253 µM) of 0.547, a relative viability (NCI-H2347; first compound 0.8 µM) of 0.621 and a relative viability (NCI-H2347; first compound 2.53 µM) of 0.769. It also gave a relative viability (EMC-BAC-2; first compound 0.08 µM) of 0.568, a relative viability (EMC-BAC-2; first compound 0.253 µM) of 0.529 and a relative viability (EMC-BAC-2; first compound 0.8 µM) of 0.56. The relative viability (EMC-BAC-2; first compound 2.53 µM) was 0.56, the relative viability (NCI-H1993; first compound 0.253 µM) was 0.736 and the relative viability (NCI-H1993; first compound 0.8 µM) was 0.748. The relative viability (NCI-H1993; first compound 2.53 µM) was 0.796, the relative viability (HCC-44; first compound 0.08 µM) was 0.591 and the relative viability (HCC-44; first compound 0.253 µM) was 0.625. It also gave a relative viability (HCC-44; first compound 0.8 µM) of 0.607, a relative viability (HCC-44; first compound 2.53 µM) of 0.784 and a relative viability (201T; first compound 0.08 µM) of 0.725. It also gave a relative viability (201T; first compound 0.253 µM) of 0.599, a relative viability (201T; first compound 0.8 µM) of 0.628 and a relative viability (201T; first compound 2.53 µM) of 0.711. For the same molecule, the relative viability (NCI-H838; first compound 0.08 µM) was 0.451, the relative viability (NCI-H838; first compound 0.253 µM) was 0.406 and the relative viability (NCI-H838; first compound 0.8 µM) was 0.582. It also gave a relative viability (NCI-H838; first compound 2.53 µM) of 0.518, a relative viability (NCI-H2126; first compound 0.08 µM) of 0.525 and a relative viability (NCI-H2126; first compound 0.253 µM) of 0.525. It also gave a relative viability (NCI-H2126; first compound 0.8 µM) of 0.465 and a relative viability (NCI-H2126; first compound 2.53 µM) of 0.474.
